Measured values published in patent publication US10844077B2, “Thiazolyl-containing compounds for treating proliferative diseases” (Dana-Farber Cancer Institute, Inc., priority 2014, dated 2020).
“And” between values parts separate entries of the source, which are not always exact repeats. Equal values may be shown once.

Legend:
Assay in all cases: KINATIV assay
Assay type in all cases: cell-based
MAST1, MAST2 = conditions: 1 μM, 90 minutes, BCWM.1 cells
Description: (§1) The cells were harvested and lysed. The lysates were directly labeled with an ATP-biotin probe. Bound kinases were identified and quantitated by ACTIVX as described in Patricelli et al., Biochemistry, 2007, 46(2): 350-358. The compounds were tested in duplicates against duplicate or quadruplicate control samples.

CSK = CSK (Homo sapiens (Human), UniProt P41240); conditions: 1 μM, 90 minutes, BCWM.1 cells
CSK, sequence (P41240 whole entry): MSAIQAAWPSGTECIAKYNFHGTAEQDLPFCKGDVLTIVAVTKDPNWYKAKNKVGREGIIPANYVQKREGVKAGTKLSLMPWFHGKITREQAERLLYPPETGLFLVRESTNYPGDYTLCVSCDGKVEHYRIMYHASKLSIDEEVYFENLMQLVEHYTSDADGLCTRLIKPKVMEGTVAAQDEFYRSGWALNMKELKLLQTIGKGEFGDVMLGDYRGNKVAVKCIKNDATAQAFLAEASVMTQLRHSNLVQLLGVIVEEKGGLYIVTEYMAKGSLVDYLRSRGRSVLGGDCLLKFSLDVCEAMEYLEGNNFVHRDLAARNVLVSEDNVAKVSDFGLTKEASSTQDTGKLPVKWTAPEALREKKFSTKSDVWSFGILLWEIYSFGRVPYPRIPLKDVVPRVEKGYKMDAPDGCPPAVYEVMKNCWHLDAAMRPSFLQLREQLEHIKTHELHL
Description: as §1

TEC = TEC (Homo sapiens (Human), UniProt P42680); conditions: 1 μM, 90 minutes, BCWM.1 cells
TEC, sequence (P42680 whole entry): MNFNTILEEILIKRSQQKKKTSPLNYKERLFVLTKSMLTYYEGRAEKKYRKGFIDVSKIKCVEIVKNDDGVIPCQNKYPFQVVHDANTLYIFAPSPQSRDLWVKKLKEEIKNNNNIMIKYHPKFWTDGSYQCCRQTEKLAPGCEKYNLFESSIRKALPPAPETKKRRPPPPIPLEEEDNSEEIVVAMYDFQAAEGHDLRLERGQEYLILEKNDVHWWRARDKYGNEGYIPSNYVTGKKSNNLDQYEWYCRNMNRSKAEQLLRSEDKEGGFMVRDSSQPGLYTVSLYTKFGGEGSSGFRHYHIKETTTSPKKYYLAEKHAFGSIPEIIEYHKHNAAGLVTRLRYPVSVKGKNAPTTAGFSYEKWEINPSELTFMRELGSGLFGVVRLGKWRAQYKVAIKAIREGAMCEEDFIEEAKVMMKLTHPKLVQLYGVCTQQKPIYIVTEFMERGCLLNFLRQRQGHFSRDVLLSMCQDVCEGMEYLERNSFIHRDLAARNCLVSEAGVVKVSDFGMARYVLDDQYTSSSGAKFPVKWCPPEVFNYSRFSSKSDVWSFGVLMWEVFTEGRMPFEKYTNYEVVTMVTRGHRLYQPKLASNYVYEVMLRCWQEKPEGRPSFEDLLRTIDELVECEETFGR
Description: as §1

BTK = BTK (Homo sapiens (Human), UniProt Q06187); conditions: 1 μM, 90 minutes, BCWM.1 cells
BTK, sequence (Q06187 whole entry, looked up): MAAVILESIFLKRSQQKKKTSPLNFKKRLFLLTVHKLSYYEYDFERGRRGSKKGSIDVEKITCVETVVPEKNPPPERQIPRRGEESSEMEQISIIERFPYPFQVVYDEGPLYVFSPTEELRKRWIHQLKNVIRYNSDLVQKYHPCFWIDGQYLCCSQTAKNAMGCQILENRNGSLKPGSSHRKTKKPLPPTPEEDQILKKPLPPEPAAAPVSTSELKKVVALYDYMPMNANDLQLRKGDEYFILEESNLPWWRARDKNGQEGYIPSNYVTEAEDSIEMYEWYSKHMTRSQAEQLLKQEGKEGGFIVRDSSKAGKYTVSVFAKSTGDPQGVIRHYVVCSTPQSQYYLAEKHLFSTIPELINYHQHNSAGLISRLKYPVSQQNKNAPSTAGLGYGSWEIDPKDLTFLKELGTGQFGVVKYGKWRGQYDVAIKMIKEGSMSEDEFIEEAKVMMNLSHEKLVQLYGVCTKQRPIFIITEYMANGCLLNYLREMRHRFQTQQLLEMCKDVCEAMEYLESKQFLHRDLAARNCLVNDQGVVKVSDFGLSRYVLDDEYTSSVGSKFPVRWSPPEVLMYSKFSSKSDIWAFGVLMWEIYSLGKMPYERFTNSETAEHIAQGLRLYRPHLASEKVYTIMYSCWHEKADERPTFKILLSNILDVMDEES
Description: as §1

PKD2 = PKD2 (Homo sapiens (Human), UniProt Q9BZL6); conditions: 1 μM, 90 minutes, BCWM.1 cells
Description: as §1

AurB = AurB (Homo sapiens (Human), UniProt Q96GD4); conditions: 1 μM, 90 minutes, BCWM.1 cells
Description: as §1

SRPK1 = SRPK1 (Homo sapiens (Human), UniProt Q96SB4); conditions: 1 μM, 90 minutes, BCWM.1 cells
Description: as §1

CDK9 = CDK9 (Homo sapiens (Human), UniProt P50750); conditions: 1 μM, 90 minutes, BCWM.1 cells
Description: as §1

MAST3 = MAST3 (Homo sapiens (Human), UniProt O60307); conditions: 1 μM, 90 minutes, BCWM.1 cells
Description: as §1

MST2 = MST2 (Homo sapiens (Human), UniProt Q13188); conditions: 1 μM, 90 minutes, BCWM.1 cells
Description: as §1

PI4KB = PI4KB (Homo sapiens (Human), UniProt Q9UBF8); conditions: 1 μM, 90 minutes, BCWM.1 cells
PI4KB, sequence (Q9UBF8 whole entry): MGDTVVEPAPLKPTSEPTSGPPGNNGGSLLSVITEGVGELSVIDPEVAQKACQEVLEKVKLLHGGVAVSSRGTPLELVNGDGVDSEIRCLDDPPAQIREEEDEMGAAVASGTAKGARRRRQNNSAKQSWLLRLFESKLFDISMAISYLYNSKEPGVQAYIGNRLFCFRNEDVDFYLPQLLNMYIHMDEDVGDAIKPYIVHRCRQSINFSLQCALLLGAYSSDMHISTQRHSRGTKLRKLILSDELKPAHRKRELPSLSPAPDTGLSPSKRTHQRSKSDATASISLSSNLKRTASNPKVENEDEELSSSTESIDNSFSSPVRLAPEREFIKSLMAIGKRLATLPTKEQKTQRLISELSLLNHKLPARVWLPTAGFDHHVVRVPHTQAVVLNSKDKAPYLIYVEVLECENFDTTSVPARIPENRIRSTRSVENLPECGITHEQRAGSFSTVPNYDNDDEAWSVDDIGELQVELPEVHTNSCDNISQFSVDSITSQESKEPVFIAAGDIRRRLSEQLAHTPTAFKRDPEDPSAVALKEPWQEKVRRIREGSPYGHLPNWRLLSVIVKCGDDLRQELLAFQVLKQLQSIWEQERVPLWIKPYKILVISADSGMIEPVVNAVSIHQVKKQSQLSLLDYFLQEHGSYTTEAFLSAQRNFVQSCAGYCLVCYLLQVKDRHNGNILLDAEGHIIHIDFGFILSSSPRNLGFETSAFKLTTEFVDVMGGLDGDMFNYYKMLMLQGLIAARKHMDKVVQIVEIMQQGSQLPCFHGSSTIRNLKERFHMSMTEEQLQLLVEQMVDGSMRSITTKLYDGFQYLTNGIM
Description: as §1

NEK6, NEK7 = conditions: 1 μM, 90 minutes, BCWM.1 cells
Description: as §1

CDC2 = CDC2 (Homo sapiens (Human), UniProt P06493); conditions: 1 μM, 90 minutes, BCWM.1 cells
Description: as §1

LRRK2 = LRRK2 (Homo sapiens (Human), UniProt Q5S007); conditions: 1 μM, 90 minutes, BCWM.1 cells
Description: as §1

CK2a1 = CK2a1 (Homo sapiens (Human), UniProt P68400); conditions: 1 μM, 90 minutes, BCWM.1 cells
CK2a1, sequence (P68400 whole entry): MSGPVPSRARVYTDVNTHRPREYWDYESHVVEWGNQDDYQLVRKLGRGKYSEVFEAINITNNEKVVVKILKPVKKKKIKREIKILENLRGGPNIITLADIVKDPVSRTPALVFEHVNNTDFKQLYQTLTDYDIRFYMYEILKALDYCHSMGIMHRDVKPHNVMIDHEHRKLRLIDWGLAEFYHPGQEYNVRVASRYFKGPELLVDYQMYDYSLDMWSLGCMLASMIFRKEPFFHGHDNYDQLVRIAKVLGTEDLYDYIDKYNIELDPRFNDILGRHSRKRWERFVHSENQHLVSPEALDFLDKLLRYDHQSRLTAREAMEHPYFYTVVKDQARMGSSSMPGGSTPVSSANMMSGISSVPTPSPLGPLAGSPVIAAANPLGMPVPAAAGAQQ
Description: as §1

CaMK2g = CaMK2g (Homo sapiens (Human), UniProt Q13555); conditions: 1 μM, 90 minutes, BCWM.1 cells
Description: as §1

TAK1 = TAK1 (Homo sapiens (Human), UniProt O43318); conditions: 1 μM, 90 minutes, BCWM.1 cells
TAK1, sequence (O43318 whole entry): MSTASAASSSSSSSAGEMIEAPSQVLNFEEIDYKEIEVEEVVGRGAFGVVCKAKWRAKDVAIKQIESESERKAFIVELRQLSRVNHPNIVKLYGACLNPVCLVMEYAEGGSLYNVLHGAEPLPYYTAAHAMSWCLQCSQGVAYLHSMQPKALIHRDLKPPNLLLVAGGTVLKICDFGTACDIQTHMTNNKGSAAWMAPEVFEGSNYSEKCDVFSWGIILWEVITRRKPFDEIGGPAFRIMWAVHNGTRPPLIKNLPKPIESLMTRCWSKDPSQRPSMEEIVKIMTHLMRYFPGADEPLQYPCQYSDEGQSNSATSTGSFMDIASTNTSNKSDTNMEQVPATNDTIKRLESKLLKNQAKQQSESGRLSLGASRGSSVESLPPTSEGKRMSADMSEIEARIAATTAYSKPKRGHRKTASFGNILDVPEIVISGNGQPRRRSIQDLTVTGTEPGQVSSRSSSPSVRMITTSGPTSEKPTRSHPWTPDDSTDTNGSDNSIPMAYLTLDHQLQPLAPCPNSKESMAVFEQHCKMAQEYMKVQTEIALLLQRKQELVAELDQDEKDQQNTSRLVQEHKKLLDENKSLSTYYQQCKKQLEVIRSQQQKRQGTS
Description: as §1

MAP2K7 = MAP2K7 (Homo sapiens (Human), UniProt O14733); conditions: 1 μM, 90 minutes, BCWM.1 cells
Description: as §1

YSK1 = YSK1 (Homo sapiens (Human), UniProt O00506); conditions: 1 μM, 90 minutes, BCWM.1 cells
Description: as §1

RSK3 = RSK3 (Homo sapiens (Human), UniProt Q15349); conditions: 1 μM, 90 minutes, BCWM.1 cells
Description: as §1

ATR = ATR (Homo sapiens (Human), UniProt Q13535); conditions: 1 μM, 90 minutes, BCWM.1 cells
Description: as §1

MARK3, MARK4 = conditions: 1 μM, 90 minutes, BCWM.1 cells
Description: as §1

PIK3CG = PIK3CG (Homo sapiens (Human), UniProt P48736); conditions: 1 μM, 90 minutes, BCWM.1 cells
Description: as §1

NEK7 = NEK7 (Homo sapiens (Human), UniProt Q8TDX7); conditions: 1 μM, 90 minutes, BCWM.1 cells
Description: as §1

SRPK1, SRPK2 = conditions: 1 μM, 90 minutes, BCWM.1 cells
Description: as §1

BRAF = BRAF (Homo sapiens (Human), UniProt P15056); conditions: 1 μM, 90 minutes, BCWM.1 cells
Description: as §1

GSK3B = GSK3B (Homo sapiens (Human), UniProt P49841); conditions: GSK3B; 1 μM, 90 minutes, BCWM.1 cells
GSK3B, sequence (P49841 whole entry): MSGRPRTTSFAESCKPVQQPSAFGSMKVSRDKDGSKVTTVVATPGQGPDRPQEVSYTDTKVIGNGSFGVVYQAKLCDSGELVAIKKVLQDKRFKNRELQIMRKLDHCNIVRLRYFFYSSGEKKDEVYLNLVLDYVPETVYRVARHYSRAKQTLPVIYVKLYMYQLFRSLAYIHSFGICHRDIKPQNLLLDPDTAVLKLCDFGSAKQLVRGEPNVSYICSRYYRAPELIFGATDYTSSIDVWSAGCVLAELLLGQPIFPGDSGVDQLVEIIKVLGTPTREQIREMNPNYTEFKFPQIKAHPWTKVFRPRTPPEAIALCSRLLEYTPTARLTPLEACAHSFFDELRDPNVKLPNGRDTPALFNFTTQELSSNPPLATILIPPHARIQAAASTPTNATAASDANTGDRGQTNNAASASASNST
Description: as §1

AMPKa1, AMPKa2 = conditions: 1 μM, 90 minutes, BCWM.1 cells
Description: as §1

CaMK1d = CaMK1d (Homo sapiens (Human), UniProt Q8IU85); conditions: 1 μM, 90 minutes, BCWM.1 cells
CaMK1d, sequence (Q8IU85 whole entry): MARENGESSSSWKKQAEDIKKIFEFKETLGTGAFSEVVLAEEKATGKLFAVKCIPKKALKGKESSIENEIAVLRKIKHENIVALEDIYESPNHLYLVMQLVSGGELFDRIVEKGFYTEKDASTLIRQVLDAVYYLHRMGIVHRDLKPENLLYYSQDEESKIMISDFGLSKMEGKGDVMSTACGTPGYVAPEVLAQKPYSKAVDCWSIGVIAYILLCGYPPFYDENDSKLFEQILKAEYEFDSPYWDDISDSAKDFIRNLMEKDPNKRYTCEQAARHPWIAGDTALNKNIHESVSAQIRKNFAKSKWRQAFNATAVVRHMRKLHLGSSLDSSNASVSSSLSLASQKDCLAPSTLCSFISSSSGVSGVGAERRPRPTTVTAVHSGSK
Description: as §1

RSK4 domain1 = RSK4 domain1 (Homo sapiens (Human), UniProt Q9UK32); conditions: 1 μM, 90 minutes, BCWM.1 cells
Description: as §1

Wnk1, Wnk2, Wnk4 = conditions: 1 μM, 90 minutes, BCWM.1 cells
Description: as §1

MAP3K6 = MAP3K6 (Homo sapiens (Human), UniProt O95382); conditions: 1 μM, 90 minutes, BCWM.1 cells
Description: as §1

CK2a2 = CK2a2 (Homo sapiens (Human), UniProt P19784); conditions: 1 μM, 90 minutes, BCWM.1 cells
Description: as §1

TYK2 domain2 = TYK2 domain2 (Homo sapiens (Human), UniProt P29597); conditions: 1 μM, 90 minutes, BCWM.1 cells
Description: as §1

LCK = LCK (Homo sapiens (Human), UniProt P06239); conditions: 1 μM, 90 minutes, BCWM.1 cells
Description: as §1

TLK2 = TLK2 (Homo sapiens (Human), UniProt Q86UE8); conditions: 1 μM, 90 minutes, BCWM.1 cells
Description: as §1

STLK5 = STLK5 (Homo sapiens (Human), UniProt Q7RTN6); conditions: 1 μM, 90 minutes, BCWM.1 cells
Description: as §1

NLK = NLK (Homo sapiens (Human), UniProt Q9UBE8); conditions: 1 μM, 90 minutes, BCWM.1 cells
Description: as §1

MARK2 = MARK2 (Homo sapiens (Human), UniProt Q7KZI7); conditions: 1 μM, 90 minutes, BCWM.1 cells
Description: as §1

NEK1 = NEK1 (Homo sapiens (Human), UniProt Q96PY6); conditions: 1 μM, 90 minutes, BCWM.1 cells
Description: as §1

MELK = MELK (Homo sapiens (Human), UniProt Q14680); conditions: 1 μM, 90 minutes, BCWM.1 cells
MELK, sequence (Q14680 whole entry): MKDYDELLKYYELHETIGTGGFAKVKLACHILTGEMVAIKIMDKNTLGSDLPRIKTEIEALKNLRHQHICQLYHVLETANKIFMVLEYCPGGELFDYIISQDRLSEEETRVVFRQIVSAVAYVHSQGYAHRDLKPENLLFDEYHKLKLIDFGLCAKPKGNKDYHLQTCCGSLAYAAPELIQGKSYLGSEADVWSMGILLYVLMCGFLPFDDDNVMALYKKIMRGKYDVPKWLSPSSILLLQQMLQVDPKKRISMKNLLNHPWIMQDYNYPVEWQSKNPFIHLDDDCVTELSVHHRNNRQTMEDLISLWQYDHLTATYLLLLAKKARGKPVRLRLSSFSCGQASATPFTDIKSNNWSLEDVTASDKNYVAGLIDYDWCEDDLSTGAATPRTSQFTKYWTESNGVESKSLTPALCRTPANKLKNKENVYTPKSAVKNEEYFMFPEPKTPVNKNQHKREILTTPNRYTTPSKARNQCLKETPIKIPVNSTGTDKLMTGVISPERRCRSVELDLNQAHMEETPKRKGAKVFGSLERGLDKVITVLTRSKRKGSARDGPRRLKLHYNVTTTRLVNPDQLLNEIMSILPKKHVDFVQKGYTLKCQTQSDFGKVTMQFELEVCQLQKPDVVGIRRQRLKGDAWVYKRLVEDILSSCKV
Description: as §1

SMILES: C=CC(=O)N1CC[C@@H](Nc2nccc(Nc3ncc(C(=O)Nc4c(C)cccc4C)s3)n2)C1 [Example I-4]
- % change of MS signal compared to control sample (MAST1, MAST2): −62.1%
- % change of MS signal compared to control sample (CSK): 35.7%
- % change of MS signal compared to control sample (TEC): 68.7% and 73.7%
- % change of MS signal compared to control sample (BTK): 97.0% and >90%
- % change of MS signal compared to control sample (PKD2): 12.9%
- % change of MS signal compared to control sample (AurB): −10.1%
- % change of MS signal compared to control sample (SRPK1): −2.1%
- % change of MS signal compared to control sample (CDK9): −41.9%
- % change of MS signal compared to control sample (MAST3): 2.0%
- % change of MS signal compared to control sample (MST2): 12.3%
- % change of MS signal compared to control sample (PI4KB): 20.0% and 16.7%
- % change of MS signal compared to control sample (NEK6, NEK7): 3.7%
- % change of MS signal compared to control sample (CDC2): −24.9%
- % change of MS signal compared to control sample (LRRK2): −5.7%
- % change of MS signal compared to control sample (CK2a1): 24.6%
- % change of MS signal compared to control sample (CaMK2g): −19.8%
- % change of MS signal compared to control sample (TAK1): 27.8%
- % change of MS signal compared to control sample (MAP2K7): −10.1%
- % change of MS signal compared to control sample (YSK1): −58.5%
- % change of MS signal compared to control sample (RSK3): 16.8%
- % change of MS signal compared to control sample (ATR): −66.1%
- % change of MS signal compared to control sample (MARK3, MARK4): 19.1%
- % change of MS signal compared to control sample (PIK3CG): −46.3%
- % change of MS signal compared to control sample (NEK7): −7.7%
- % change of MS signal compared to control sample (SRPK1, SRPK2): −14.7%
- % change of MS signal compared to control sample (BRAF): 17.8%
- % change of MS signal compared to control sample (GSK3B): 0.7%
- % change of MS signal compared to control sample (AMPKa1, AMPKa2): −40.3%
- % change of MS signal compared to control sample (CaMK1d): −12.5% and −4.0%
- % change of MS signal compared to control sample (RSK4 domain1): 3.5%
- % change of MS signal compared to control sample (Wnk1, Wnk2, Wnk4): −0.5%
- % change of MS signal compared to control sample (MAP3K6): 10.9%
- % change of MS signal compared to control sample (CK2a2): −3.6%
- % change of MS signal compared to control sample (TYK2 domain2): −3.8%
- % change of MS signal compared to control sample (LCK): 96.1%
- % change of MS signal compared to control sample (TLK2): 8.7%
- % change of MS signal compared to control sample (STLK5): 2.0% and −4.4%
- % change of MS signal compared to control sample (NLK): 6.7%
- % change of MS signal compared to control sample (MARK2): 3.6%
- % change of MS signal compared to control sample (NEK1): 7.3%
- % change of MS signal compared to control sample (MELK): −11.7%

SMILES: C=CC(=O)N1CCCCC(Nc2nccc(Nc3ncc(C(=O)Nc4c(C)cccc4C)s3)n2)C1 (stereo not drawn) [Example I-7]
- % change of MS signal compared to control sample (MAST1, MAST2): −35.0%
- % change of MS signal compared to control sample (CSK): 76.5% and 75.7%
- % change of MS signal compared to control sample (TEC): 85.1% and 58.6%
- % change of MS signal compared to control sample (BTK): 98.9% and >90%
- % change of MS signal compared to control sample (PKD2): 10.0%
- % change of MS signal compared to control sample (AurB): −6.1%
- % change of MS signal compared to control sample (SRPK1): 1.2%
- % change of MS signal compared to control sample (CDK9): −37.0%
- % change of MS signal compared to control sample (MAST3): −1.6%
- % change of MS signal compared to control sample (MST2): 6.5%
- % change of MS signal compared to control sample (PI4KB): 36.0% and 35.3%
- % change of MS signal compared to control sample (NEK6, NEK7): −8.4%
- % change of MS signal compared to control sample (CDC2): −16.2%
- % change of MS signal compared to control sample (LRRK2): −9.6%
- % change of MS signal compared to control sample (CK2a1): 14.3%
- % change of MS signal compared to control sample (CaMK2g): −12.8%
- % change of MS signal compared to control sample (TAK1): 14.5%
- % change of MS signal compared to control sample (MAP2K7): 11.2%
- % change of MS signal compared to control sample (YSK1): −19.9%
- % change of MS signal compared to control sample (RSK3): 12.6%
- % change of MS signal compared to control sample (ATR): −48.0%
- % change of MS signal compared to control sample (MARK3, MARK4): 20.7%
- % change of MS signal compared to control sample (PIK3CG): −51.9%
- % change of MS signal compared to control sample (NEK7): 10.0%
- % change of MS signal compared to control sample (SRPK1, SRPK2): 17.3%
- % change of MS signal compared to control sample (BRAF): 21.7%
- % change of MS signal compared to control sample (GSK3B): −1.9%
- % change of MS signal compared to control sample (AMPKa1, AMPKa2): −20.7% and −22.3%
- % change of MS signal compared to control sample (CaMK1d): −19.1% and −16.0%
- % change of MS signal compared to control sample (RSK4 domain1): −13.5%
- % change of MS signal compared to control sample (Wnk1, Wnk2, Wnk4): −6.6%
- % change of MS signal compared to control sample (MAP3K6): −21.3%
- % change of MS signal compared to control sample (CK2a2): −6.4%
- % change of MS signal compared to control sample (TYK2 domain2): −46.4%
- % change of MS signal compared to control sample (LCK): 96.5%
- % change of MS signal compared to control sample (TLK2): 7.3%
- % change of MS signal compared to control sample (NLK): 4.2%
- % change of MS signal compared to control sample (MARK2): 7.7%
- % change of MS signal compared to control sample (NEK1): 11.4%
- % change of MS signal compared to control sample (MELK): −11.0%
